Reference: US12516038B2, “Inhibitors of antigen presentation by HLA-DR” (Janssen Pharmaceutica NV, priority 2020, dated 2026)

Legend:
HLA-DRB1*0401 = HLA-DRB1*0401 (Homo sapiens (Human), UniProt P01903+P01911, A100K/A169T/DEL228-266/F76Y/I96L/K127E/L162R/M171V/N62H/P40V/Q125Y/R42H/S133A/S149N/S66Y/V115G/V209L/W38E); experiment: HLA-DR4 HTRF assay; type: binding; details: inhibition of loading of Alexa Fluor 647-labeled Cit-CII peptide onto HLA-DR4 (CLIP cleaved)
Outline: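 HLA-DRB1*04:01 construct (α/β fused to human Fc, CLIP pre-cleaved by HRV3C overnight at 4° C) at 3 nM was preincubated 45 min with compound and 1 nM anti-Fc-Tb donor, then 40 nM Alexa647-Cit-CII1236-1249 peptide added. After 90 min at 37° C, the 665/620 nm HTRF ratio gave % inhibition; IC50 by nonlinear regression.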

[1] = test system: HLA-DR4 restricted mouse T cell hybridoma line (DR4.CII.36.8) with HLA-DRB1*04:01-expressing Boleth cells; experiment: HLA-DR4-restricted peptide-specific T cell-based assay (hybridoma assay); details: Mus musculus, T-cell, 6 h, inhibition of IL-2 production, CII259-273 peptide presented by Boleth cells
Outline: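 IC50 values derive from 4-parameter logistic fits of IL-2 AlphaLISA signal over 8-point duplicate titrations. Compound and HLA-DRB1*04:01 Boleth APCs were preincubated 1 h, 37° C., before adding CII259-273-restricted DR4.CII.36.8 hybridoma cells with peptide for 6 h at 37° C., in DMEM/1% FCS.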

[2] = test system: human peripheral blood CD4+ helper T cells; experiment: Pan-CD4+ T cell activation (off-target assay); type: cell-based; details: Homo sapiens, T-cell, 24 h, anti-CD3/anti-CD28 stimulation, IL-2 production by ELISA
Text: The counter-screening was made through an HLA-DR-independent assay (Pan-CD4+ T cell activation assay), i.e., TCR-stimulated pan-T cell activation assay, and consists of activating T cell directly with agonistic antibody targeting the T cell receptor. The lack of inhibition in the counter-screening assay reflects that the inhibition of T cell activation in the HLA-DR4 restricted peptide-specific T cell based assay with the small molecule inhibitors is due to impaired antigen presentation on HLA-DR to the T cell and not due to a direct inhibition of the T cell function by an off-target mechanism (i.e., independently of targeting HLA-DR).
Pan-CD4+ T Cell Activation
Compounds were tested using a pan-T cell activation assay. In this assay, anti-human CD3 antibody (BD Pharmingen #55336) pre-coated at 1 μg/mL to a 96-well assay plate and 1 μg/ml soluble anti-human CD28 (EBioscience #16-0289-85) antibody were used for activating human peripheral blood CD4+ helper T cells (no HLA-DR-expressing APC were present in this assay format), in the presence of compounds (or vehicle control) for 24 hrs. IL-2 production was measured in the culture supernatant by ELISA (Human IL-2 Duo Set ELISA #DY202 from R&D Systems).

| SMILES | IC50 (HLA-DRB1*0401) [µM] | IC50 [1] [µM] | IC50 [2] [µM] |
| --- | --- | --- | --- |
| O=C1CCOc2cc(OC(c3ccncc3)c3cccc(F)c3)ccc21 (racemic) [Example 2, (R,S)-7-((3-Fluorophenyl)(pyridin-4-yl)methoxy)chroman-4-one] | 1 | 2.8 | > 15 |
| O=C1CCOc2cc(OC(c3ccncc3)c3ccc(F)cc3)ccc21 (racemic) [Example 3, (R,S)-7-((4-Fluorophenyl)(pyridin-4-yl)methoxy)chroman-4-one] | 0.99 | 3.7 | > 15 |
| NC(=O)c1ccc(C(Oc2ccc3c(c2)OCCC3=O)c2ccncc2)cc1 (racemic) [Example 11, (R,S)-4-(((4-Oxochroman-7-yl)oxy)(pyridin-4-yl)methyl)benzamide] | 0.65 | 1.2 | > 15 |
| COc1ccc(C(Oc2ccc3c(c2)OCCC3=O)c2ccncc2)cc1 (racemic) [Example 12, (R,S)-7-((4-Methoxyphenyl)(pyridin-4-yl)methoxy)chroman-4-one] | 1.2 | 1.6 | > 15 |
| COc1ccccc1C(Oc1ccc2c(c1)OCCC2=O)c1ccncc1 (racemic) [Example 14, 7-((2-Methoxyphenyl)(pyridin-4-yl)methoxy)chroman-4-one] | 2.4 | 5 | > 15 |
| O=C1CCOc2cc(OC(c3ccccc3)c3ccncc3)ccc21 (racemic) [Example 114, (R,S)-7-(Phenyl(pyridin-4-yl)methoxy)chroman-4-one] | 3.4 | 11 | > 10 |
| O=C1CCOc2cc(OC(c3ccccc3)c3cccnc3)ccc21 (racemic) [Example 115, (R,S)-7-(Phenyl(pyridin-3-yl)methoxy)chroman-4-one] | 5 | 12 | 15 |
| CCC1COc2cc(OCc3ccncc3)ccc2C1=O (racemic) [Example 120, (R,S)-3-Ethyl-7-(pyridin-4-ylmethoxy)chroman-4-one] | 1.2 | 5.1 | > 15 |
| Cc1c(OC2CCc3cc(C(N)=O)ccc32)ccc2c1OCCC2=O (racemic) [Example 121, (R,S)-1-((8-Methyl-4-oxochroman-7-yl)oxy)-2,3-dihydro-1H-indene-5-carboxamide] | 0.63 | 8.1 | > 15 |
| O=C1CCOc2cc(O[C@H](c3ccncc3)c3ccccc3F)ccc21 (single isomer, unassigned) [Example 1a, (*R)-7-((2-Fluorophenyl)(pyridin-4-yl)methoxy)chroman-4-one] | 1 | 3.4 | > 15 |
| O=C1CCOc2cc(O[C@@H](c3ccncc3)c3ccccc3F)ccc21 (single isomer, unassigned) [Example 1b, (*S)-7-((2-Fluorophenyl)(pyridin-4-yl)methoxy)chroman-4-one] | 1.2 | 3.1 | 3.1 |
| O=C1CCOc2cc(O[C@H](c3ccncc3)c3cccc(F)c3)ccc21 (single isomer, unassigned) [Example 2a, (*R)-7-((3-Fluorophenyl)(pyridin-4-yl)methoxy)chroman-4-one] | 1.6 | 1.7 | 15 |
| O=C1CCOc2cc(O[C@@H](c3ccncc3)c3cccc(F)c3)ccc21 (single isomer, unassigned) [Example 2b, (*S)-7-((3-Fluorophenyl)(pyridin-4-yl)methoxy)chroman-4-one] | 1.8 | 3.9 | > 15 |
| O=C1CCOc2cc(O[C@@H](c3ccncc3)c3ccc(F)cc3)ccc21 (single isomer, unassigned) [Example 3a, (*R)-7-((4-Fluorophenyl)(pyridin-4-yl)methoxy)chroman-4-one] | 1.6 | 4.2 | 15 |
| O=C1CCOc2cc(O[C@H](c3ccncc3)c3ccc(F)cc3)ccc21 (single isomer, unassigned) [Example 3b, (*S)-7-((4-Fluorophenyl)(pyridin-4-yl)methoxy)chroman-4-one] | 1.3 | 2.1 | > 15 |
| COc1ccc(COc2cccc([C@H](Oc3ccc4c(c3)OCCC4=O)c3ccncc3)c2)cc1 (single isomer, unassigned) [Example 4a, (*R)-7-((3-((4-Methoxybenzyl)oxy)phenyl)(pyridin-4-yl)methoxy)chroman-4-one] | 6.9 | 2.9 | 7.8 |
| COc1ccc(COc2cccc([C@@H](Oc3ccc4c(c3)OCCC4=O)c3ccncc3)c2)cc1 (single isomer, unassigned) [Example 4b, (*S)-7-((3-((4-Methoxybenzyl)oxy)phenyl)(pyridin-4-yl)methoxy)chroman-4-one] | 7.9 | 2.6 | 15 |
| O=C1CCOc2cc(O[C@H](c3ccncc3)c3cccc(O)c3)ccc21 (single isomer, unassigned) [Example 5a, (*R)-7-((3-Hydroxyphenyl)(pyridin-4-yl)methoxy)chroman-4-one] | 14 | 1.9 | 2.8 |
| N#Cc1ccccc1[C@H](Oc1ccc2c(c1)OCCC2=O)c1ccncc1 (single isomer, unassigned) [Example 7a, (*R)-2-(((4-Oxochroman-7-yl)oxy)(pyridin-4-yl)methyl)benzonitrile] | 0.69 | 4.6 | 4.4 |
| CC[C@@H]1CC(=O)c2ccc(OCc3ccncc3OC)cc2O1 (single isomer, unassigned) [Example 119a, (*R)-2-ethyl-7-((3-methoxypyridin-4-yl)methoxy)chroman-4-one] | 0.54 | 13 | – |
| CC[C@H]1CC(=O)c2ccc(OCc3ccncc3OC)cc2O1 (single isomer, unassigned) [Example 119b, (*S)-2-ethyl-7-((3-methoxypyridin-4-yl)methoxy)chroman-4-one] | 0.69 | > 15 | – |
| Cc1c(O[C@@H]2CCc3cc(C(N)=O)ccc32)ccc2c1OCCC2=O (single isomer, unassigned) [Example 121a, (*R)-1-((8-methyl-4-oxochroman-7-yl)oxy)-2,3-dihydro-1H-indene-5-carboxamide] | 0.93 | > 15 | – |
| Cc1c(O[C@@H]2CCCc3cc(C#N)ccc32)ccc2c1OCCC2=O (single isomer, unassigned) [Example 122a, (*R)-5-((8-methyl-4-oxochroman-7-yl)oxy)-5,6,7,8-tetrahydronaphthalene-2-carbonitrile] | 0.54 | 6.3 | – |
| Cc1c(O[C@H]2CCCc3cc(C#N)ccc32)ccc2c1OCCC2=O (single isomer, unassigned) [Example 122b, (*S)-5-((8-methyl-4-oxochroman-7-yl)oxy)-5,6,7,8-tetrahydronaphthalene-2-carbonitrile] | 0.93 | 15 | – |
| Cc1c(O[C@@H]2CCCc3cc(C(N)=O)ccc32)ccc2c1OCCC2=O (single isomer, unassigned) [Example 123a, (*R)-5-((8-methyl-4-oxochroman-7-yl)oxy)-5,6,7,8-tetrahydronaphthalene-2-carboxamide] | 0.63 | 7.9 | – |
| Cc1c(O[C@H]2CCCc3cc(C(N)=O)ccc32)ccc2c1OCCC2=O (single isomer, unassigned) [Example 123b, (*S)-5-((8-methyl-4-oxochroman-7-yl)oxy)-5,6,7,8-tetrahydronaphthalene-2-carboxamide] | 0.57 | 6.3 | – |
| Cc1c(O[C@@H]2CCc3cnccc32)ccc2c1OCCC2=O (single isomer, unassigned) [Example 124a, (*R)-7-((6,7-dihydro-5H-cyclopenta[c]pyridin-5-yl)oxy)-8-methylchroman-4-one] | 0.57 | 14 | – |
| Cc1c(O[C@H]2CCc3cnccc32)ccc2c1OCCC2=O (single isomer, unassigned) [Example 124b, (*S)-7-((6,7-dihydro-5H-cyclopenta[c]pyridin-5-yl)oxy)-8-methylchroman-4-one] | 0.74 | 6 | – |
| Cc1cc(COc2ccc3c(c2C(C)C)OCCC3=O)cc(C)n1 [Example 117, 7-((2,6-Dimethylpyridin-4-yl)methoxy)-8-isopropylchroman-4-one] | 0.68 | 3.1 | – |
